US20210300900A1, “OGA INHIBITOR COMPOUNDS” (Janssen Pharmaceutica NV, priority 2018, published 2021)
Structures can show the parent of a compound that is named as a salt. Blank lines part the entries; values can stand above or below the compound they belong to.

Assays:
[1] = target: T1, recombinant human Meningioma Expressed Antigen 5 (MGEA5), also referred to as O-GcNAcase (OGA) (Homo sapiens, UniProt O60502); assay: OGA biochemical assay (inhibition of FM-GlcNAc hydrolysis, fluorescence); settings: FM-GlcNAc substrate; for Emax: read-out: Enzymatic Emax (%); for IC50: read-out: Enzymatic hOGA, pIC50 (converted)
T1 construct: Full length OGA enzyme was purchased at OnGene (cat #TP322411); purchased OnGene (so in the source)
T1 sequence (O60502 1-916): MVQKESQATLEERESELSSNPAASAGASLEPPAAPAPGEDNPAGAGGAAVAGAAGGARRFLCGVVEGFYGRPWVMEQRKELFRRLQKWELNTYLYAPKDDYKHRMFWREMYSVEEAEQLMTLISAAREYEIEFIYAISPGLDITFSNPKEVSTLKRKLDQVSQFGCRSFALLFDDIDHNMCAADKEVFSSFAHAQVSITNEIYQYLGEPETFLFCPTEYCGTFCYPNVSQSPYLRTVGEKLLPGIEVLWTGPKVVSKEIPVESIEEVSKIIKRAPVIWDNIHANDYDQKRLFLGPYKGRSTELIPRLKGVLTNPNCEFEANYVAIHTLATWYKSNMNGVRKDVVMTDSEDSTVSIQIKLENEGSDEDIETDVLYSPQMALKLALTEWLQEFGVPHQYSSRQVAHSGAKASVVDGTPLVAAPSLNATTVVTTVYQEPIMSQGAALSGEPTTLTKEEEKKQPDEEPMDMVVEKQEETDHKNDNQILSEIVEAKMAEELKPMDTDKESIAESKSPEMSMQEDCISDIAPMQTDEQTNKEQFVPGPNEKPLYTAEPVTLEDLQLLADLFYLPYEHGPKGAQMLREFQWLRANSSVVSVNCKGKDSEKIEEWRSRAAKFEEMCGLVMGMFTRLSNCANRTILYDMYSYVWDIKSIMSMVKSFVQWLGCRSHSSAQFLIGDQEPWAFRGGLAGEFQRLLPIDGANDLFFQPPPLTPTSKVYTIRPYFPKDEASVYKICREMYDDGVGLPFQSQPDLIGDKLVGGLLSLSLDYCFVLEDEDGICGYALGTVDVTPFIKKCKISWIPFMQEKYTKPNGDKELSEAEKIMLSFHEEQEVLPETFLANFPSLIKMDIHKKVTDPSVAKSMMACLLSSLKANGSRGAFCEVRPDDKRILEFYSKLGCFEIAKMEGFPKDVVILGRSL
Outline: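 Full-length recombinant human OGA (2 nM) pre-incubated 60 min with compound, then FM-GlcNAc (100 uM final) added in 200 mM citrate/phosphate pH 7.2 with 0.005% Tween-20; 6 h at room temperature, stopped with pH 11.0 carbonate. Fluorescein read at ex 485/em 538 nm; IC50 and Hill coefficient from curve fit against no-inhibitor and saturating-standard controls.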

OGA = target: T2, OGA (Homo sapiens, UniProt O60502); assay: OGA cellular assay (ICC detection of O-GlcNAcylated proteins in HEK293 cells inducible for P301L mutant human Tau); assay type: cell-based; settings: 6 hours incubation; for Emax: HEK293, HEK293 cells inducible for P301L mutant human Tau, maximum = Thiamet G 200 uM; for EC50: HEK293 cells inducible for P301L mutant human Tau, read-out: Cellular hOGA, pEC50 (converted)
T2 construct: endogenous in cells; host or cells: HEK293 cells inducible for P301L mutant human Tau (isoform 2N4R)
T2 sequence (O60502 1-916): T1 sequence (O60502 1-916)
Description: HEK293 cells inducible for P301L mutant human Tau (isoform 2N4R) were established at Janssen. Thiamet-G was used for both plate validation (high control) and as reference compound (reference EC50 assay validation). OGA inhibition is evaluated through the immunocytochemical (ICC) detection of O-GlcNAcylated proteins by the use of a monoclonal antibody (CTD110.6; Cell Signaling, #9875) detecting O-GlcNAcylated residues as previously described (Dorfmueller et al. 2010 Chemistry & biology, 17:1250). Inhibition of OGA will result in an increase of O-GlcNAcylated protein levels resulting in an increased signal in the experiment. Cell nuclei are stained with Hoechst to give a cell culture quality control and a rough estimate of immediate compounds toxicity, if any. ICC pictures are imaged with a Perkin Elmer Opera Phenix plate microscope and quantified with the provided software Perkin Elmer Harmony 4.1.
Cells were propagated in DMEM high Glucose (Sigma, #D5796) following standard procedures. 2 days before the cell assay cells are split, counted and seeded in Poly-D-Lysine (PDL) coated 96-wells (Greiner, #655946) plate at a cell density of 12,000 cells per cm^2 (4,000 cells per well) in 100 μl of Assay Medium (Low Glucose medium is used to reduce basal levels of GlcNAcylation) (Park et al. 2014 The Journal of biological chemistry 289:13519). At the day of compound test medium from assay plates was removed and replenished with 90 μl of fresh Assay Medium. 10 μl of compounds at a 10 fold final concentration were added to the wells. Plates were centrifuged shortly before incubation in the cell incubator for 6 hours. DMSO concentration was set to 0.2%. Medium is discarded by applying vacuum. For staining of cells medium was removed and cells washed once with 100 μl D-PBS (Sigma, #D8537). From next step onwards unless other stated assay volume was always 50 μl and incubation was performed without agitation and at room temperature. Cells were fixed in 50 μl of a 4% paraformaldehyde (PFA, Alpha aesar, #043368) PBS solution for 15 minutes at room temperature. […] Before analysis samples were washed 2 times manually for 5 minutes in ICC base buffer.
Imaging is performed using Perkin Elmer Phenix Opera using a water 20×objective and recording 9 fields per well. Intensity readout at 488 nm is used as a measure of O-GlcNAcylation level of total proteins in wells. To assess potential toxicity of compounds nuclei were counted using the Hoechst staining. IC50-values are calculated using parametric non-linear regression model fitting. As a maximum inhibition Thiamet G at a 200 uM concentration is present on each plate. In addition, a concentration response of Thiamet G is calculated on each plate.

Emax [1]: 95% | IC50 [1]: 692 nM | Emax (OGA): 26% | EC50 (OGA): > 1000 nM | melting point: 211.6 °C
SMILES: CC(=O)Nc1cnc(C(C)N2CCC[C@H](Cc3cc(C)nc(C)c3)C2)cn1 (some centres unmarked) [Product 64]

melting point: 188.1 °C
SMILES: CCC(=O)Nc1cncc(C(C)N2CCC[C@H](Cc3cc(C)nc(C)c3)C2)c1 (mixture of isomers) (as salt: HCl) [Product 38]

melting point: 192.2 °C
SMILES: CC(=O)Nc1cc(CN2CCCC(COc3cc(C)nc(C)c3)C2)n[nH]1 (centres unmarked) (as salt: hydrochloric acid salt) [Product 119]

Emax [1]: 97% | IC50 [1]: 457 nM | Emax (OGA): 31% | EC50 (OGA): > 1000 nM | melting point: 184.68 °C
SMILES: CC(=O)Nc1cc(C(C)N2CCCC(c3cc(C)nc(C)c3)C2)n[nH]1 (centres unmarked) [Product 72]

melting point: 245 °C
SMILES: CC(=O)Nc1cc(C(C)N2CCCC(CNc3cc(C)nc(C)c3)C2)[nH]n1 (centres unmarked) (as salt: HCl) [Product 83]

melting point: 251.2 °C
SMILES: CNC(=O)c1cncc(C(C)N2CCC[C@H](Cc3cc(C)nc(C)c3)C2)c1 (mixture of isomers) (as salt: HCl) [Product 40]

The next lines start with the compound.

SMILES: CC(=O)Nc1cc(C(C)N2CCCC(CNc3cc(C)nc(C(F)(F)F)c3)C2)[nH]n1 (centres unmarked) [Product 91]
Emax [1]: 104% | IC50 [1]: 129 nM | melting point: 261.7 °C

SMILES: CC(=O)Nc1ncc(CN2CCC[C@H](Cc3cc(C)nc(C)c3)C2)nc1C.Cl [Product 158]
Emax [1]: 13% | IC50 [1]: > 10000 nM | melting point: 158.1 °C

SMILES: CCOc1cc(CN2CCC[C@H](Cc3cc(C)nc(C)c3)C2)n[nH]1 [Product 14]
Emax [1]: 81% | IC50 [1]: 2750 nM | melting point: 112.89 °C

SMILES: CC(=O)Nc1ccnc(CN2CCC[C@H](Cc3cc(C)nc(C)c3)C2)c1 (as salt: HCl) [Product 31]
melting point: 133 °C

SMILES: COc1cc(NC[C@H]2CCCN(C(C)c3nc(OC)ccc3F)C2)cc(C)n1 (mixture of isomers) (as salt: HCl) [Product 90]
melting point: 151.3 °C

SMILES: CC(=O)Nc1cncc(CN2CCC[C@H](Cc3cc(C)nc(C)c3)C2)c1 (as salt: HCl) [Product 34]
melting point: 186.5 °C
